Read-outs that look alike come from different tables or passages of the source.
Assays:
Type in all cases: in vivo
[1] = tested on: barnyardgrass (Echinochloa crus-galli); assay: Test B pre/postemergence; conditions: Echinochloa crus-galli; for pest or weed control at 125 g/ha: 125 g ai/ha; for pest or weed control at 500 g/ha: 500 g ai/ha
In short: (§1)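 Compounds in non-phytotoxic solvent with surfactant applied preemergence to planted seeds or postemergence to plants 2 to 18 cm tall (1- to 4-leaf stage). Greenhouse 13 to 15 days, then visual rating against controls on a 0 to 100 scale (100 = complete control).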

[2] = tested on: pigweed (Amaranthus retroflexus); assay: Test B pre/postemergence; conditions: Amaranthus retroflexus; for pest or weed control at 125 g/ha: 125 g ai/ha; for pest or weed control at 500 g/ha: 500 g ai/ha
In short: as §1

[3] = tested on: morningglory (Ipomoea coccinea); assay: Test B pre/postemergence; conditions: Ipomoea; for pest or weed control at 125 g/ha: 125 g ai/ha; for pest or weed control at 500 g/ha: 500 g ai/ha
In short: as §1

[4] = tested on: giant foxtail (Setaria faberii); assay: Test B pre/postemergence; conditions: Setaria faberi; for pest or weed control at 125 g/ha: 125 g ai/ha; for pest or weed control at 500 g/ha: 500 g ai/ha
In short: as §1

[5] = tested on: Surinam grass (Brachiaria decumbens); assay: Test B pre/postemergence; conditions: Urochloa decumbens; for pest or weed control at 125 g/ha: 125 g ai/ha; for pest or weed control at 500 g/ha: 500 g ai/ha
In short: as §1

corn (Zea mays) = assay: Test B pre/postemergence; conditions: Zea mays
In short: as §1

[6] = tested on: cocklebur (Xanthium strumarium); assay: Test B pre/postemergence; conditions: Xanthium strumarium; for pest or weed control at 125 g/ha: 125 g ai/ha; for pest or weed control at 500 g/ha: 500 g ai/ha
In short: as §1

[7] = tested on: lambsquarters (Chenopodium album); assay: Test B pre/postemergence; conditions: Chenopodium album; for pest or weed control at 125 g/ha: 125 g ai/ha; for pest or weed control at 500 g/ha: 500 g ai/ha
In short: as §1

[8] = tested on: velvetleaf (Abutilon theophrasti); assay: Test B pre/postemergence; conditions: Abutilon theophrasti; for pest or weed control at 125 g/ha: 125 g ai/ha; for pest or weed control at 500 g/ha: 500 g ai/ha
In short: as §1

[9] = tested on: wheat (Triticum aestivum); assay: Test B pre/postemergence; conditions: Triticum aestivum; for plant injury at 125 g/ha: 125 g ai/ha; for plant injury at 500 g/ha: 500 g ai/ha
In short: as §1

[10] = tested on: crabgrass (Digitaria sanguinalis); assay: Test B pre/postemergence; conditions: Digitaria sanguinalis; for pest or weed control at 125 g/ha: 125 g ai/ha; for pest or weed control at 500 g/ha: 500 g ai/ha
In short: as §1

[11] = tested on: blackgrass (Alopecurus myosuroides); assay: Test B postemergence; conditions: Alopecurus myosuroides, post-emergence
In short: as §1

wild oat (Avena fatua) = assay: Test B postemergence; conditions: Avena fatua, post-emergence
In short: as §1

[12] = tested on: barnyardgrass (Echinochloa crus-galli); assay: Test B flooded paddy test; conditions: Echinochloa crus-galli, Flood, 1000 g ai/ha; scale 0 (no effect) to 100 (complete control); read-out: Plant response rating, Barnyardgrass
In short: (§2)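 Visual injury scoring (0 = no effect, 100 = complete control) versus controls made 13 to 15 days after treatment in the greenhouse. Test species were grown in flooded paddy to the 2-leaf stage: rice, barnyardgrass, umbrella sedge, duck salad.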

[13] = tested on: duck salad (Heteranthera limosa); assay: Test B flooded paddy test; conditions: Heteranthera limosa, Flood, 1000 g ai/ha; scale 0 to 100; read-out: Plant response rating, Ducksalad
In short: as §2

[14] = tested on: umbrella sedge (Cyperus difformis); assay: Test B flooded paddy test; conditions: Cyperus difformis, Flood, 1000 g ai/ha; scale 0 to 100; read-out: Plant response rating, Sedge, Umbrella
In short: as §2

rice (Oryza sativa) = assay: Test B flooded paddy test; conditions: Oryza sativa, Flood, 1000 g ai/ha; scale 0 to 100; read-out: Plant response rating, Rice
In short: as §2

In the case of `Nc1nc(C2CC2)nc(C(=O)OCc2ccccc2)c1Br` [Compound 22, phenylmethyl 6-amino-5-bromo-2-cyclopropyl-4-pyrimidinecarboxylate], the pest or weed control at 125 g/ha ([1]; post-emergence, Postemergence, scale 0 to 100 (0 no effect, 100 complete control), read-out: Barnyardgrass plant response rating) was 70%, the pest or weed control at 500 g/ha ([1]; post-emergence, Postemergence, scale 0 to 100, read-out: Plant response rating, Barnyardgrass) was 90% and the pest or weed control at 125 g/ha ([1]; pre-emergence, Preemergence, scale 0 to 100 (0 no effect, 100 complete control), read-out: Plant response rating, Barnyardgrass) was 0%. The pest or weed control at 500 g/ha ([1]; pre-emergence, Preemergence, scale 0 to 100 (0 no effect, 100 complete control), read-out: Barnyardgrass plant response rating) was 20%, the pest or weed control at 125 g/ha ([2]; post-emergence, Postemergence, scale 0 to 100 (0 no effect, 100 complete control), read-out: Pigweed plant response rating) was 100% and the pest or weed control at 500 g/ha ([2]; post-emergence, Postemergence, scale 0 to 100, read-out: Plant response rating, Pigweed) was 100%. It also gave a pest or weed control at 125 g/ha ([2]; pre-emergence, Preemergence, scale 0 to 100 (0 no effect, 100 complete control), read-out: Plant response rating, Pigweed) of 60%, a pest or weed control at 500 g/ha ([2]; pre-emergence, Preemergence, scale 0 to 100 (0 no effect, 100 complete control), read-out: Pigweed plant response rating) of 80% and a pest or weed control at 125 g/ha ([3]; post-emergence, Postemergence, scale 0 to 100 (0 no effect, 100 complete control), read-out: Morningglory plant response rating) of 90%. The pest or weed control at 500 g/ha ([3]; post-emergence, Postemergence, scale 0 to 100, read-out: Plant response rating, Morningglory) was 100%, the pest or weed control at 125 g/ha ([3]; pre-emergence, Preemergence, scale 0 to 100 (0 no effect, 100 complete control), read-out: Plant response rating, Morningglory) was 100% and the pest or weed control at 500 g/ha ([3]; pre-emergence, Preemergence, scale 0 to 100 (0 no effect, 100 complete control), read-out: Morningglory plant response rating) was 100%. It also gave a pest or weed control at 125 g/ha ([4]; post-emergence, Postemergence, scale 0 to 100 (0 no effect, 100 complete control), read-out: Foxtail, Giant plant response rating) of 70%, a pest or weed control at 500 g/ha ([4]; post-emergence, Postemergence, scale 0 to 100, read-out: Plant response rating, Foxtail, Giant) of 80% and a pest or weed control at 125 g/ha ([4]; pre-emergence, Preemergence, scale 0 to 100 (0 no effect, 100 complete control), read-out: Plant response rating, Foxtail, Giant) of 0%. It also gave a pest or weed control at 500 g/ha ([4]; pre-emergence, Preemergence, scale 0 to 100 (0 no effect, 100 complete control), read-out: Foxtail, Giant plant response rating) of 20%, a pest or weed control at 125 g/ha ([5]; post-emergence, Postemergence, scale 0 to 100 (0 no effect, 100 complete control), read-out: Surinam Grass plant response rating) of 80% and a pest or weed control at 500 g/ha ([5]; post-emergence, Postemergence, scale 0 to 100, read-out: Plant response rating, Surinam Grass) of 90%. The pest or weed control at 125 g/ha ([5]; pre-emergence, Preemergence, scale 0 to 100 (0 no effect, 100 complete control), read-out: Plant response rating, Surinam Grass) was 0%, the pest or weed control at 500 g/ha ([5]; pre-emergence, Preemergence, scale 0 to 100 (0 no effect, 100 complete control), read-out: Surinam Grass plant response rating) was 20% and the plant injury at 125 g/ha (corn (Zea mays); post-emergence, Postemergence, 125 g ai/ha, scale 0 to 100 (0 no effect, 100 complete control), read-out: Corn plant response rating) was 20%. It also gave a Corn plant response rating (crop injury, 0 = no effect, 100 = complete kill) at 500 g/ha (corn (Zea mays); post-emergence, Postemergence, 500 g ai/ha, scale 0 to 100) of 80%, a Corn plant response rating (crop injury, 0 = no effect, 100 = complete kill) at 125 g/ha (corn (Zea mays); pre-emergence, Preemergence, 125 g ai/ha, scale 0 to 100 (0 no effect, 100 complete control)) of 10% and a pest or weed control at 125 g/ha ([6]; post-emergence, Postemergence, scale 0 to 100 (0 no effect, 100 complete control), read-out: Cocklebur plant response rating) of 100%. For the same compound, the pest or weed control at 500 g/ha ([6]; post-emergence, Postemergence, scale 0 to 100, read-out: Plant response rating, Cocklebur) was 100%, the pest or weed control at 125 g/ha ([6]; pre-emergence, Preemergence, scale 0 to 100 (0 no effect, 100 complete control), read-out: Plant response rating, Cocklebur) was 50% and the pest or weed control at 500 g/ha ([6]; pre-emergence, Preemergence, scale 0 to 100 (0 no effect, 100 complete control), read-out: Cocklebur plant response rating) was 80%. For the same compound, the pest or weed control at 125 g/ha ([7]; post-emergence, Postemergence, scale 0 to 100 (0 no effect, 100 complete control), read-out: Lambsquarters plant response rating) was 100%, the pest or weed control at 500 g/ha ([7]; post-emergence, Postemergence, scale 0 to 100, read-out: Plant response rating, Lambsquarters) was 100% and the pest or weed control at 125 g/ha ([7]; pre-emergence, Preemergence, scale 0 to 100 (0 no effect, 100 complete control), read-out: Plant response rating, Lambsquarters) was 70%. It also gave a pest or weed control at 500 g/ha ([7]; pre-emergence, Preemergence, scale 0 to 100 (0 no effect, 100 complete control), read-out: Lambsquarters plant response rating) of 100%, a pest or weed control at 125 g/ha ([8]; post-emergence, Postemergence, scale 0 to 100 (0 no effect, 100 complete control), read-out: Velvetleaf plant response rating) of 100% and a pest or weed control at 500 g/ha ([8]; post-emergence, Postemergence, scale 0 to 100, read-out: Plant response rating, Velvetleaf) of 100%. For the same compound, the pest or weed control at 125 g/ha ([8]; pre-emergence, Preemergence, scale 0 to 100 (0 no effect, 100 complete control), read-out: Plant response rating, Velvetleaf) was 30%, the pest or weed control at 500 g/ha ([8]; pre-emergence, Preemergence, scale 0 to 100 (0 no effect, 100 complete control), read-out: Velvetleaf plant response rating) was 100% and the plant injury at 125 g/ha ([9]; post-emergence, Postemergence, scale 0 to 100 (0 no effect, 100 complete control), read-out: Wheat plant response rating) was 0%. The plant injury at 500 g/ha ([9]; post-emergence, Postemergence, scale 0 to 100, read-out: Plant response rating, Wheat) was 70%, the plant injury at 125 g/ha ([9]; pre-emergence, Preemergence, scale 0 to 100 (0 no effect, 100 complete control), read-out: Plant response rating, Wheat) was 10% and the plant injury at 500 g/ha ([9]; pre-emergence, Preemergence, scale 0 to 100 (0 no effect, 100 complete control), read-out: Wheat plant response rating) was 50%. The pest or weed control at 125 g/ha ([10]; post-emergence, Postemergence, scale 0 to 100 (0 no effect, 100 complete control), read-out: Crabgrass plant response rating) was 50%, the pest or weed control at 500 g/ha ([10]; post-emergence, Postemergence, scale 0 to 100, read-out: Plant response rating, Crabgrass) was 90% and the pest or weed control at 125 g/ha ([10]; pre-emergence, Preemergence, scale 0 to 100 (0 no effect, 100 complete control), read-out: Plant response rating, Crabgrass) was 20%. For the same compound, the pest or weed control at 500 g/ha ([10]; pre-emergence, Preemergence, scale 0 to 100 (0 no effect, 100 complete control), read-out: Crabgrass plant response rating) was 100%, the pest or weed control at 125 g/ha ([11]; 125 g ai/ha, scale 0 to 100 (0 no effect, 100 complete control), read-out: Blackgrass plant response rating) was 60% and the pest or weed control at 500 g/ha ([11]; 500 g ai/ha, scale 0 to 100, read-out: Plant response rating, Blackgrass) was 80%. The pest or weed control at 125 g/ha (wild oat (Avena fatua); 125 g ai/ha, scale 0 to 100 (0 no effect, 100 complete control), read-out: Oat, Wild plant response rating) was 10%, the pest or weed control at 500 g/ha (wild oat (Avena fatua); 500 g ai/ha, scale 0 to 100, read-out: Plant response rating, Oat, Wild) was 60% and the pest or weed control at 1000 g/ha [12] was 80%. It also gave a pest or weed control at 1000 g/ha [13] of 90%, a pest or weed control at 1000 g/ha [14] of 50% and a plant injury at 1000 g/ha (rice (Oryza sativa)) of 60%.
